Tests used:
Assay type in all cases: cell-based, human rhinovirus
rhinovirus-T39 = experiment: antiviral activity of HuIFN-α versus rhinovirus in presence and absence of menthol (MTS method, WISH cells); details: menthol 1:800
Description: Rhinovirus 1A, rhinovirus 15 and rhinovirus 39 were titrated according to the tetrazolium salt (MTS)-method (Berg et al., 1990) (Hansen et al., 1989)). WISH cells were seeded in a micro tray at 3000 cells per well and incubated at 37° C., 5% CO2 overnight; the following morning the medium was replaced with 10-fold dilutions of either rhinovirus 1A, rhinovirus 15 or rhinovirus 39, respectively, in fresh medium and the trays were incubated 4-5 days at 33° C.; a microscopical examination confirmed that the CytoPathogenic Effect (CPE) was fully developed (CPE equal to 100%). The minimal amount of virus (i.e.: the highest dilution of the virus in question) which produced 100% destruction was used as “challenge virus” in the subsequent experiments. To quantitate the CPE in terms of % destruction, MTS (Berg and Owen, 2003) was added to all cultures and after 3 h incubation at 37° C. (without CO2) the trays were read in a scanner as previously described (Berg et al., 1990). […]
The results were graphed with the concentration of interferon on the horizontal scale and the OD492 readings on the vertical scale.

RHV 1A, 17, and 39A = experiment: rhinovirus titration in presence of menthol, all three rhinoviruses employed
Description: WISH cells were seeded in a micro tray at 3000 cells per well and incubated at 37° C., 5% CO2 overnight; the following morning the medium was replaced with 10-fold dilutions of either rhinovirus 1A, […], respectively, in fresh medium and the trays were incubated 4-5 days at 33° C.; a microscopical examination confirmed that the CytoPathogenic Effect (CPE) was fully developed (CPE equal to 100%). The minimal amount of virus (i.e.: the highest dilution of the virus in question) which produced 100% destruction was used as “challenge virus” in the subsequent experiments. To quantitate the CPE in terms of % destruction, MTS (Berg and Owen, 2003) was added to all cultures and after 3 h incubation at 37° C. (without CO2) the trays were read in a scanner as previously described (Berg et al., 1990). Control cell cultures, that were not infected with virus, were included in the experiment; the latter gave the highest OD as these cells were not damaged; depending on the concentration of virus added to the different wells, the OD492 varied, accordingly: 100% CPE yielded a low OD (<0.200); 0% CPE corresponding to no infection at all (controls cell) gave a high OD (>1.200). […]

rhinovirus T39 = experiment: rhinovirus titration on WISH cell monolayers in presence or absence of menthol; details: menthol dilution 1:800; virus dilution range 10^2-10^3; WISH cells (FIG. 2A)
Description: Rhinovirus 1A, rhinovirus 15 and rhinovirus 39 were titrated according to the tetrazolium salt (MTS)-method (Berg et al., 1990) (Hansen et al., 1989)). WISH cells were seeded in a micro tray at 3000 cells per well and incubated at 37° C., 5% CO2 overnight; the following morning the medium was replaced with 10-fold dilutions of either rhinovirus 1A, rhinovirus 15 or rhinovirus 39, respectively, in fresh medium and the trays were incubated 4-5 days at 33° C.; a microscopical examination confirmed that the CytoPathogenic Effect (CPE) was fully developed (CPE equal to 100%). The minimal amount of virus (i.e.: the highest dilution of the virus in question) which produced 100% destruction was used as “challenge virus” in the subsequent experiments. To quantitate the CPE in terms of % destruction, MTS (Berg and Owen, 2003) was added to all cultures and after 3 h incubation at 37° C. (without CO2) the trays were read in a scanner as previously described (Berg et al., 1990). Control cell cultures, that were not infected with virus, were included in the experiment; the latter gave the highest OD as these cells were not damaged; depending on the concentration of virus added to the different wells, the OD492 varied, accordingly: 100% CPE yielded a low OD (<0.200); 0% CPE corresponding to no infection at all (controls cell) gave a high OD (>1.200). […]

CC(C)[C@@H]1CC[C@@H](C)C[C@H]1O [Menthol, levo-(−)-Menthol]
potentiation of interferon antiviral activity (interferon curve+menthol versus interferon curve) (rhinovirus-T39; interferon range 0 to 8 units/ml, HRV T39, similar at 10^-2.5): specific potentiation
protection compared to uninfected control cells (rhinovirus-T39; HRV T39 at 10^-2, IFN=0 units/ml, WISH cells, OD492 (FIG. 1A)): 10-15%
protection against rhinovirus (RHV 1A, 17, and 39A): protection was seen
increase in protection compared to virus controls receiving no menthol (rhinovirus T39): ~50%
